Source: patent publication US6019959A, “Oligomeric compounds that contain perfluoroalkyl, process for their production, and their use in NMR diagnosis” (Schering Aktiengesellschaft, priority 1998, dated 2000)
Blank lines part the entries; values can stand above or below the compound they belong to.

How the values were obtained:
[1] = Determination of the T1-relaxivity with a Minispec pc 20 in human plasma; format: physicochemical; details: 0.47 T (20 MHz), 37° C., human plasma, normalized to one metal atom
Description: Determination of the T^1 -Relaxivity of Selected Compounds
The relaxivity of the following compounds was determined
with a Minispec pc 20 (20 MHz, 0.47 T) at 37° C. in human plasma
and compared to that of Gd-DTPA-polylysine and Magnevist^(R) as
comparison substances. Since the substances according to the
invention contain more than one metal atom, the relaxivity was
normalized to one metal atom for purposes of comparison.

[2] = T1-relaxivity of commercially available 1H-NMR contrast media; format: physicochemical; details: 39° C., 0.47 T
[3] = Blood elimination kinetics after one-time intravenous administration; format: in vivo, rats; details: two-compartment model, n=3
Description: (§1) For this purpose, after one-time intravenous administration (via a caudal vein) of the substances (dose: ≈100 μmol of metal per kg of body weight), the substance concentration in the blood (based on the Gd or Dy content) was determined over a period of up to 120 minutes p.i. using ICP-AES. The pharmacokinetic parameters: distribution volume (Vss), total clearance (CLtot) and elimination half-life (tb) were calculated with a special computer program (TOPFIT 2.0; Thomae, Schering, Godecke), whereby a two-compartment distribution model was used as a basis.
The Gd and Dy contents in the blood were determined using ICP-AES.
as §1, with “metal” for “Gd or Dy”

[4] = In-vivo comparison with an intravascular and an extracellular contrast medium in blocked kidneys (diffusibility); design: species or system rats; details: i.v., blocked renal vessels, compound 2 set at 100%
Description: As test animals, three 250 g male (Schering-SPF) rats were used. The renal vessels in the animals were blocked to prevent renal elimination and, assuming that fecal elimination is negligible, to obtain a measure of the diffusibility of the formulation according to the invention from the blood into the surrounding tissue. 0.5 ml (in each case 10 mmol/l) of the following contrast medium solution was intravenously administered per animal: a mixture consisting of 1 part each of the compound of Example 1g, named compound 1 below, of intravascular contrast medium Eu-DTPA-albumin, named compound 2 below and of extracellular contrast medium Dy-DTPA, named compound 3 below. Via a catheter in the common carotid artery, blood samples were taken at the following times: 15, 30, 45, 60, 90 seconds; 3, 5, 10, 15 minutes p.i. In the blood samples that were obtained, in each case the concentrations of gadolinium (Gd), europium (Eu) and dysprosium (Dy) were measured in parallel using atom emission spectrometry (ICP-AES). The proportion of the intravascular contrast medium compound 2 (Eu) that remains in the blood space was set at 100%. It was possible to compare the proportion of the formulation according to the invention of compound 1 (Gd) and compound 3 (Dy, extracellular comparison substance) that remained in the blood space by the different labeling in the same animal, and the proportion was set as a percentage of the concentration of compound 2.

[5] = Table 3, i.v. ≈100 μmol metal/kg
[6] = Table 4, i.v. ≈100 μmol metal/kg

Compound: 1,4,7-Tris{1,4,7-tris-(N-carboxylatomethyl)-10-[N-(4,7-diaza-3,6,9-trioxo)-nonane-2,9-diyl]-1,4,7,10-tetraazacyclododecane, Gd complex-10-(N-22F,22F,22F,21F,21F,20F,20F,19F,19F,18F,18F,17F,17F,16F,16F,15F,15F-heptadecafluoro-12-oxa-docosanoyl)-1,4,7,10-tetraazacyclododecane [14e)]
R^1 (T^1-relaxivity) [1]: 19.3 L/mmol/s

Compound: 1,4,7-Tris{N-3,3,6-tris(carboxylatomethyl)-6-[N-3-aza-2,5-dioxo-pentane-1,5-diyl]-3,6,9-triazaundecane-1,11-dioic acid, Gd complex, monosodium salt}-10-2H,2H,4H,4H,5H,5H-3-oxa-perfluoro-tridecanoyl)-1,4,7,10-tetraazacyclododecane [8b)]
R^1 (T^1-relaxivity) [1]: 20.6 L/mmol/s

Compound: 1,4,7-Tris{N-3,9-bis(carboxylatomethyl)-6-[N-3-aza-2,5-dioxo-pentane-1,5-diyl]-3,6,9-triazaundecane-1-carboxylato-11-acid, Gd complex, sodium salt}-10-[N-acetyl-(2-amino-N-ethyl-N-perfluorooctylsulfonyl)]-1,4,7,10-tetraazacyclododecane [18d)]
R^1 (T^1-relaxivity) [1]: 23.0 L/mmol/s

Compound: 1,4,7-Tris{N-[3,9-bis(N-carboxylatomethyl)]-6-[N-(3-aza-2,5-dioxo-pentane)-1,5-diyl]-3,6,9-triazaundecane-1-carboxylato-11-acid, Gd complex, monosodium salt}-10-N-{undecanoyl-<11-amino-N-[acetyl-(2-amino-N-ethyl-N-perfluorooctyl-sulfonyl)]>}-1,4,7,10-tetraazacyclododecane [25f)]
R^1 (T^1-relaxivity) [1]: 15.1 L/mmol/s

Compound: 1,4,7-Tris{N-hexanoyl-2,6-bis<amino-N-acetyl-2-[3,9-bis(N-carboxylato-methyl)-6-yl-3,6,9-triazaundecane-1-carboxylato-11-acid, Gd complex, monosodium salt]>}-10-[N-acetyl-(2-amino-N-ethyl-N-perfluorooctylsulfonyl)]-1,4,7,10- tetraazacyclododecane [26d)]
R^1 (T^1-relaxivity) [1]: 13.0 L/mmol/s

Compound: 1,4,7-Tris{N-hexanoyl-2,6-bis<amino-N-acetyl-2-[aminopropanoyl-(2-yl)]-[1,4,7-tris(N-carboxylatomethyl)-1,4,7,10-tetraazacyclododecan-10-yl, Gd complex]>}-10-[N-acetyl-(2-amino-N-ethyl-N-perfluorooctylsulfonyl)]-1,4,7,10-tetraazacyclododecane [Example 27]
R^1 (T^1-relaxivity) [1]: 16.1 L/mmol/s

Compound: C[NH2+]C[C@H](O)[C@@H](O)[C@H](O)[C@H](O)CO.O=C([O-])CN1CCN(CC(=O)[O-])CCN(CC(=O)[O-])CCN(CC(=O)[O-])CC1.[Gd+3] [Dotarem, meglumine salt of Gd-DOTA (Gadolinium(III)complex of 1,4,7,10-tetracarboxymethyl-1,4,7,10-tetraazacyclododecane)]
T^1-relaxivity [2]: 3.5 to 4.9 mM⁻¹ s⁻¹

Compound: C[NH2+]C[C@H](O)[C@@H](O)[C@H](O)[C@H](O)CO.C[NH2+]C[C@H](O)[C@@H](O)[C@H](O)[C@H](O)CO.O=C([O-])CN(CCN(CC(=O)[O-])CC(=O)[O-])CCN(CC(=O)[O-])CC(=O)[O-].[Gd+3] [Magnevist, di--N-methylglucamine salt of the Gd-DTPA complex, reference compound]
T^1-relaxivity [2]: 3.5 to 4.9 mM⁻¹ s⁻¹ | R^1 (T^1-relaxivity) [1]: 4.8 L/mmol/s

Compound: CNC(=O)CN(CCN(CCN(CC(=O)[O-])CC(=O)NC)CC(=O)[O-])CC(=O)[O-].[Gd+3] [Omniscan]
T^1-relaxivity [2]: 3.5 to 4.9 mM⁻¹ s⁻¹

Compound: CC(O)CN1CCN(CC(=O)[O-])CCN(CC(=O)[O-])CCN(CC(=O)[O-])CC1.[Gd+3] (stereo not shown) [Pro Hance]
T^1-relaxivity [2]: 3.5 to 4.9 mM⁻¹ s⁻¹

Distribution volume Vss (MEAN) [3, 5]: 0.17 Ukg | Elimination half-life tβ (MEAN) [3, 5]: 20.7 min | Total clearance CLtot (MEAN) [3, 5]: 6.75 mU (min*kg) | tα (MEAN) [3, 5]: 2.07 min | Distribution volume Vss (MEAN) [3, 6]: 0.17 Ukg | Elimination half-life tβ (MEAN) [3, 6]: 18.5 min | Total clearance CLtot (MEAN) [3, 6]: 6.90 mL·kg·min | tα (MEAN) [3, 6]: 1.48 min | Percentage of the dose that remains in the blood space ([4]; 30 seconds p.i.): 48% | Percentage of the dose that remains in the blood space ([4]; 3 minutes p.i.): 25% | Percentage of the dose that remains in the blood space ([4]; 10 minutes p.i.): 21%
Compound: Dy-DTPA [reference compound]

Compound: Eu-DTPA-albumin [compound 2]
Percentage of the dose that remains in the blood space ([4]; 30 seconds p.i.): 100% | Percentage of the dose that remains in the blood space ([4]; 3 minutes p.i.): 100% | Percentage of the dose that remains in the blood space ([4]; 10 minutes p.i.): 100%
